Target: T1, human NEP (Homo sapiens, UniProt P08473)
T1 construct: purchased R&D Systems, Minneapolis, Minn; 1182-ZN
Experiment: In vitro enzyme inhibition assay, inhibitor potency at human NEP (Assay 1)
Assay type: biochemical
Conditions: recombinant human NEP; fluorogenic peptide substrate 10 μM; 37° C.; values given as ranges
Procedure: The inhibitory activities of compounds at human and rat neprilysin (EC 3.4.24.11; NEP) and human angiotensin converting enzyme (ACE) were determined using in vitro assays as described below.
Recombinant human NEP and recombinant human ACE were obtained commercially (R&D Systems, Minneapolis, Minn., catalog numbers 1182-ZN and 929-ZN, respectively). The fluorogenic peptide substrate Mca-D-Arg-Arg-Leu-Dap-(Dnp)-OH (Medeiros et al. (1997) Braz. J. Med. Biol. Res. 30:1157-62; Anaspec, San Jose, Calif.) and Abz-Phe-Arg-Lys(Dnp)-Pro-OH (Araujo et al. (2000) Biochemistry 39:8519-8525; Bachem, Torrance, Calif.) were used in the NEP and ACE assays respectively.
The assays were performed in 384-well white opaque plates at 37° C. using the fluorogenic peptide substrates at a concentration of 10 μM in Assay Buffer (NEP: 50 mM HEPES, pH 7.5, 100 mM NaCl, 0.01% polyethylene glycol sorbitan monolaurate (Tween-20), 10 μM ZnSO4; ACE: 50 mM HEPES, pH 7.5, 100 mM NaCl, 0.01% Tween-20, 1 μM ZnSO4).
Test compounds were assayed over the range of concentrations from […] to 20 μM. Test compounds were added to the enzymes and incubated for 30 minute at 37° C. prior to initiating the reaction by the addition of substrate. Reactions were terminated after 20 minutes of incubation at 37° C. by the addition of glacial acetic acid to a final concentration of 3.6% (v/v).
Plates were read on a fluorometer with excitation and emission wavelengths set to 320 nm and 405 nm, respectively. Inhibition constants were obtained by nonlinear regression of the data using the equation (GraphPad Software, Inc., San Diego, Calif.): ν=ν0/[1+(I/K′)] where ν is the reaction rate, ν0 is the uninhibited reaction rate, I is the inhibitor concentration and K′ is the apparent inhibition constant.
Compounds of the invention were tested in this assay and found to have pKi values at human NEP as follows.

T1 sequence (P08473 52-750 limits assumed): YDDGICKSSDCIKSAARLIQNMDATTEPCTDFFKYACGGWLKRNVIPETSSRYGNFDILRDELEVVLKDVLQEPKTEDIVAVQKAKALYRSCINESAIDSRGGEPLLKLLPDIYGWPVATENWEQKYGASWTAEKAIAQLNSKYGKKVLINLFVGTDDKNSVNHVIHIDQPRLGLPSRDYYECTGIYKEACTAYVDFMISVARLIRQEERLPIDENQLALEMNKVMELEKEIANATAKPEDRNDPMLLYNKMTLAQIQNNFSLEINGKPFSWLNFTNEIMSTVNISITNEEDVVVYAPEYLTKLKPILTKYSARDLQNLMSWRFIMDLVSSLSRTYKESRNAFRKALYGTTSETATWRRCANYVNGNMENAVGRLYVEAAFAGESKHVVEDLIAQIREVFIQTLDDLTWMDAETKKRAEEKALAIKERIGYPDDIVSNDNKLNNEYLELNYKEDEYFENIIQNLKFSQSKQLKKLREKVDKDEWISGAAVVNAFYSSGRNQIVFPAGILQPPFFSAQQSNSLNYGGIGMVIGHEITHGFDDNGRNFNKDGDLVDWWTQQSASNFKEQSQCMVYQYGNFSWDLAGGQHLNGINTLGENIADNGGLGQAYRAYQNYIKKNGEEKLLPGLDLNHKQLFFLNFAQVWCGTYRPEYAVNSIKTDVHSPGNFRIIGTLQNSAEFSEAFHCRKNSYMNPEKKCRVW

SMILES | Ki
O=C(NNc1ccc([N+](=O)[O-])cc1[N+](=O)[O-])C(=O)N[C@H](Cc1ccc(-c2cccc(Cl)c2)cc1)C[C@@H](O)C(=O)O [Example 5, (2R,4R)-5-(3′-Chlorobiphenyl-4-yl)-4-{[N′-(2,4-dinitrophenyl)-hydrazinooxalyl]-amino}-2-hydroxypentanoic Acid] | ≤ 1 nM
O=C(NNc1ccncc1)C(=O)N[C@H](Cc1ccc(-c2cccc(Cl)c2)cc1)C[C@@H](O)C(=O)O [Example 6-3, (2R,4R)-5-(3′-Chlorobiphenyl-4-yl)-2-hydroxy-4-[(N′-pyridin-4-yl-hydrazino-oxalyl)-amino]pentanoic acid] | 1 to 10 nM
O=C(NNc1cccnc1)C(=O)N[C@H](Cc1ccc(-c2cccc(Cl)c2)cc1)C[C@@H](O)C(=O)O [Example 6-4, (2R,4R)-5-(3′-Chlorobiphenyl-4-yl)-2-hydroxy-4-[(N′-pyridin-3-yl-hydrazino-oxalyl)-amino]pentanoic acid] | 1 to 10 nM
O=C(NNc1ccccc1Cl)C(=O)N[C@H](Cc1ccc(-c2cccc(Cl)c2)cc1)C[C@@H](O)C(=O)O [Example 6-7, (2R,4R)-5-(3′-Chlorobiphenyl-4-yl)-4-{[N′-(2-chloro-phenyl)-hydrazinooxalyl]-amino}-2-hydroxypentanoic acid] | 1 to 10 nM
O=C(NNc1ccccc1F)C(=O)N[C@H](Cc1ccc(-c2cccc(Cl)c2)cc1)C[C@@H](O)C(=O)O [Example 6-8, (2R,4R)-5-(3′-Chlorobiphenyl-4-yl)-4-{[N′-(2-fluoro-phenyl)-hydrazinooxalyl]-amino}-2-hydroxypentanoic acid] | 1 to 10 nM
O=C(NNc1cccc(Cl)c1)C(=O)N[C@H](Cc1ccc(-c2cccc(Cl)c2)cc1)C[C@@H](O)C(=O)O [Example 6-9, (2R,4R)-5-(3′-Chlorobiphenyl-4-yl)-4-{[N′-(3-chloro-phenyl)-hydrazinooxalyl]-amino}-2-hydroxypentanoic acid] | 1 to 10 nM
Cc1ccccc1NNC(=O)C(=O)N[C@H](Cc1ccc(-c2cccc(Cl)c2)cc1)C[C@@H](O)C(=O)O [Example 6-10, (2R,4R)-5-(3′-Chlorobiphenyl-4-yl)-2-hydroxy-4-[(N′-o-tolyl-hydrazinooxalyl)-amino]-pentanoic acid] | 1 to 10 nM
Cc1ccc(NNC(=O)C(=O)N[C@H](Cc2ccc(-c3cccc(Cl)c3)cc2)C[C@@H](O)C(=O)O)cc1 [Example 6-11, (2R,4R)-5-(3′-Chlorobiphenyl-4-yl)-2-hydroxy-4-[(N′-p-tolyl-hydrazinooxalyl)-amino]-pentanoic acid] | 1 to 10 nM
O=C(NNc1ccc(F)cc1)C(=O)N[C@H](Cc1ccc(-c2cccc(Cl)c2)cc1)C[C@@H](O)C(=O)O [Example 6-12, (2R,4R)-5-(3′-Chlorobiphenyl-4-yl)-4-{[N′-(4-fluoro-phenyl)-hydrazinooxalyl]-amino}-2-hydroxypentanoic acid] | 1 to 10 nM
O=C(NNc1ccc(Cl)cc1)C(=O)N[C@H](Cc1ccc(-c2cccc(Cl)c2)cc1)C[C@@H](O)C(=O)O [Example 6-13, (2R,4R)-5-(3′-Chlorobiphenyl-4-yl)-4-{[N′-(4-chloro-phenyl)-hydrazinooxalyl]-amino}-2-hydroxypentanoic acid] | 1 to 10 nM
COc1ccc(NNC(=O)C(=O)N[C@H](Cc2ccc(-c3cccc(Cl)c3)cc2)C[C@@H](O)C(=O)O)cc1 [Example 6-15, (2R,4R)-5-(3′-Chlorobiphenyl-4-yl)-2-hydroxy-4-{[N′-(4-methoxyphenyl)-hydrazinooxalyl]amino}pentanoic acid] | 1 to 10 nM
Cc1cccc(NNC(=O)C(=O)N[C@H](Cc2ccc(-c3cccc(Cl)c3)cc2)C[C@@H](O)C(=O)O)c1 [Example 6-16, (2R,4R)-5-(3′-Chlorobiphenyl-4-yl)-2-hydroxy-4-[(N′-m-tolylhydrazinooxalyl)-amino]pentanoic acid] | 1 to 10 nM
O=C(NNc1ccccc1)C(=O)N[C@H](Cc1ccc(-c2cccc(Cl)c2)cc1)C[C@@H](O)C(=O)O [Example 6-17, (2R,4R)-5-(3′-Chlorobiphenyl-4-yl)-2-hydroxy-4-[(N′-phenylhydrazinooxalyl)-amino]pentanoic acid] | 1 to 10 nM
O=C(NNC(=O)c1ccccc1O)C(=O)N[C@H](Cc1ccc(-c2cccc(Cl)c2)cc1)C[C@@H](O)C(=O)O [Example 7, (2R,4R)-5-(3′-Chlorobiphenyl-4-yl)-2-hydroxy-4-{2-[N′-(2-hydroxybenzoyl)hydrazino]-2-oxo-acetylamino}pentanoic Acid] | ≤ 1 nM
O=C(NNC(=O)C(=O)N[C@H](Cc1ccc(-c2cccc(Cl)c2)cc1)C[C@@H](O)C(=O)O)OCc1ccccc1 [Example 8-1, (2R,4R)-4-[2-(N′-Benzyloxycarbonyl-hydrazino)-2-oxo-acetylamino]-5-(3′-chloro-biphenyl-4-yl)-2-hydroxypentanoic acid] | 10 to 31.6 nM
O=C(NNC(=O)c1ccccc1[N+](=O)[O-])C(=O)N[C@H](Cc1ccc(-c2cccc(Cl)c2)cc1)C[C@@H](O)C(=O)O [Example 8-6, (2R,4R)-5-(3′-Chlorobiphenyl-4-yl)-2-hydroxy-4-{2-[N′-(2-nitro-benzoyl)-hydrazino]-2-oxo-acetylamino}pentanoic acid] | 1 to 10 nM
O=C(CO)N[C@H](Cc1ccc(-c2cccc(Cl)c2)cc1)C[C@@H](O)C(=O)O [Example 10-1, (2R,4R)-5-(3′-Chlorobiphenyl-4-yl)-2-hydroxy-4-(2-hydroxyacetylamino)-pentanoic acid] | 1 to 10 nM

Continued, values first:

Ki | SMILES
10 to 31.6 nM | CNNC(=O)C(=O)N[C@H](Cc1ccc(-c2cccc(Cl)c2)cc1)C[C@@H](O)C(=O)O [Example 6-1, (2R,4R)-5-(3′-Chlorobiphenyl-4-yl)-2-hydroxy-4-[(N′-methylhydrazinooxalyl)-amino]pentanoic acid]
10 to 31.6 nM | CC(C)CNNC(=O)C(=O)N[C@H](Cc1ccc(-c2cccc(Cl)c2)cc1)C[C@@H](O)C(=O)O [Example 6-2, (2R,4R)-5-(3′-Chlorobiphenyl-4-yl)-2-hydroxy-4-[(N′-isobutylhydrazinooxalyl)-amino]pentanoic acid]
1 to 10 nM | O=C(NNc1cc(O)ncn1)C(=O)N[C@H](Cc1ccc(-c2cccc(Cl)c2)cc1)C[C@@H](O)C(=O)O [Example 6-5, (2R,4R)-5-(3′-Chlorobiphenyl-4-yl)-2-hydroxy-4-{[N′-(6-hydroxy-pyrimidin-4-yl)-hydrazinooxalyl]amino}-pentanoic acid]
10 to 31.6 nM | O=C(NNC1=NCCN1)C(=O)N[C@H](Cc1ccc(-c2cccc(Cl)c2)cc1)C[C@@H](O)C(=O)O [Example 6-6, (2R,4R)-5-(3′-Chlorobiphenyl-4-yl)-4-{[N′-(4,5-dihydro-1H-imidazol-2-yl)-hydrazinooxalyl]-amino}-2-hydroxypentanoic acid]
1 to 10 nM | O=C(NNc1ccc(Br)cc1)C(=O)N[C@H](Cc1ccc(-c2cccc(Cl)c2)cc1)C[C@@H](O)C(=O)O [Example 6-14, (2R,4R)-4-{[N′-(4-Bromophenyl)-hydrazinooxalyl]-amino}-5-(3′-chlorobiphenyl-4-yl)-2-hydroxypentanoic acid]
1 to 10 nM | O=C(NNC(=O)c1ccc(Cl)nc1)C(=O)N[C@H](Cc1ccc(-c2cccc(Cl)c2)cc1)C[C@@H](O)C(=O)O [Example 8-2, (2R,4R)-5-(3′-Chlorobiphenyl-4-yl)-4-{2-[N′-(6-chloro-pyridine-3-carbonyl)-hydrazino]-2-oxo-acetylamino}-2-hydroxypentanoic acid]
1 to 10 nM | O=C(NNC(=O)c1cccnc1)C(=O)N[C@H](Cc1ccc(-c2cccc(Cl)c2)cc1)C[C@@H](O)C(=O)O [Example 8-3, (2R,4R)-5-(3′-Chlorobiphenyl-4-yl)-2-hydroxy-4-{2-oxo-2-[N′-(pyridine-3-carbonyl)-hydrazino]acetylamino}pentanoic acid]
1 to 10 nM | O=C(NNC(=O)c1ccncc1)C(=O)N[C@H](Cc1ccc(-c2cccc(Cl)c2)cc1)C[C@@H](O)C(=O)O [Example 8-4, (2R,4R)-5-(3′-Chlorobiphenyl-4-yl)-2-hydroxy-4-{2-oxo-2-[N′-(pyridine-4-carbonyl)-hydrazino]acetylamino}pentanoic acid]
1 to 10 nM | O=C(NNC(=O)c1ccco1)C(=O)N[C@H](Cc1ccc(-c2cccc(Cl)c2)cc1)C[C@@H](O)C(=O)O [Example 8-5, (2R,4R)-5-(3′-Chlorobiphenyl-4-yl)-4-{2-[N′-(furan-2-carbonyl)-hydrazino]-2-oxo-acetylamino}-2-hydroxypentanoic acid]
1 to 10 nM | O=C(N[C@H](Cc1ccc(-c2cccc(Cl)c2)cc1)C[C@@H](O)C(=O)O)C1CCCCO1 (stereo partly drawn) [Example 9, (2R,4R)-5-(3′-Chlorobiphenyl-4-yl)-2-hydroxy-4-[(tetrahydropyran-2-carbonyl)amino]pentanoic Acid]
1 to 10 nM | COCC(=O)N[C@H](Cc1ccc(-c2cccc(Cl)c2)cc1)C[C@@H](O)C(=O)O [Example 10-2, (2R,4R)-5-(3′-Chlorobiphenyl-4-yl)-2-hydroxy-4-(2-methoxyacetylamino)-pentanoic acid]

Reference: US10053417B2, “Neprilysin inhibitors” (THERAVANCE BIOPHARMA R&D IP, LLC, priority 2013, dated 2018)
